Like-named read-outs stand apart in the source and are kept apart here.
How the values were obtained:
Format in all cases: cell-based
[1] = system: human platelet rich plasma (TRAP induced aggregation); test: TRAP (SFLLRN) induced platelet aggregation, human platelet rich plasma (in vitro); details: for IC50: human PRP, 25 μM TRAP, read-out: TRAP induced platelet aggregation studies (Human) IC50; for effect on TRAP induced platelet aggregation: up to 300 μM
Protocol: (§1) The reaction was allowed to proceed for at least 5 min, and the extent of aggregation was expressed in light-transmission units (Ivandic B T, Schlick P, Starltz P, Kurz K, Katas H A, Giannitsis E. Determination of clopidogrel resistance by whole blood platelet aggregometry and inhibitors of the P2Y12 receptor. Clinical Chemistry 2006: 52:383-88).
(§2) The percentage of aggregation was calculated by using following formula: Percent Aggregation=A/B×100 Where, A is the number of division traversed by the label on chart in the presence of Inducer & B is the total number of divisions (80). Platelet Aggregation Studies (FIG. 3) a) Platelet Aggregation (Human, In Vitro) (FIG. 3a (i) (ii) (iii))

GPVI = molecular target: T1, GPVI (Homo sapiens, UniProt Q9HCN6); test: GPVI-mediated platelet adhesion assay on fibrillar collagen (human, in vitro); details: for Platelet adhesion: Table 2 summary, collagen type not stated, effective concentration in brackets: mixture 100 μM, compound 6 30 & 100 μM, compound 7 100 μM; for human platelet adhesion on fibrillar collagen (GP VI mediated): in vitro, washed platelets, divalent cation-free
T1 construct: Washed platelets, suspended in the Tyrode's-HEPES buffer; endogenous in cells; host or cells: washed human platelets from healthy volunteers
T1 sequence (Q9HCN6 21-339): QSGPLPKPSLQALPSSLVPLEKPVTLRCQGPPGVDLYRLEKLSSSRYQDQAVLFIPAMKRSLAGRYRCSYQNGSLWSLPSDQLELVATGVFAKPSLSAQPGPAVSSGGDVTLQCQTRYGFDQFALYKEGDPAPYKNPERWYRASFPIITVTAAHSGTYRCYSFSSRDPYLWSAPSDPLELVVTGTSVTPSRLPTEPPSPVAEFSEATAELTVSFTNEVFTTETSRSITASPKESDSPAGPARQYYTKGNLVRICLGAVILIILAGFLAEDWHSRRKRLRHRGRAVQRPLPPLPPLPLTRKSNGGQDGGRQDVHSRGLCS
T1 sequence (P30273 19-86 partner): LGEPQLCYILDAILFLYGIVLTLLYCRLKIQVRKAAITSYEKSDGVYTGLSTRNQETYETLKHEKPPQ
Protocol: Fresh blood was drawn by venipuncture from consenting healthy human volunteers in citrate-phosphate-dextrose. Platelet-rich plasma (PRP) was obtained by centrifugation at 180 g for 20 minutes at room temperature (Beckman TJ6. USA). […] Platelets were then washed twice with Buffer (20 mMHEPES, 138 mM NaCl, 2.9 mMKCl, 1 mMMgCl2, 0.36 mMNaH2PO4, 1 mM EGTA, 4.77 mM trisodium citrate, and 2.35 mM citric acid, 5 mM glucose and Apyrase 1 U/ml, pH 6.5) containing 0.1% bovine serum albumin (BSA) and finally resuspended in the HEPES-buffered Tyrode solution (pH 7.4), to give a concentration of 2×10^8 cells/mL (Jandrot-Perrus M. Lagrue A H, Okuma M, and Boni C Adhesion and Activation of Human Platelets Induced by Convulxin Involve Glycoprotein VI and Integrin α2β1 J. Biol. Chem. 1997; 272: 27035-27041).
Integrin α2β1 binding on soluble collagen depends on the presence of Mg2+/Ca^2+ (Onley D. J., Knight C. G., Tuckwell D. S., Barnes M. J., and Farndale R. W. Micromolar Ca2+ concentrations are essential for Mg2+-dependent binding of collagen by the integrin α2β1 in human platelets. J. Biol. Chem, 2000; 275: 24560-24564.) while GPVI mediates adhesion over fibrillar collagen in absence of divalent ions (Nieswandt B., Brakebusch C, Bergmeier W, Schulte V, Bouvard D, Nejad R M, Lindhout T, Heemskerk J W M, Zirngibl H and Fassler R. Glycoprotein VI but not α2b1 integrin is essential for platelet interaction with collagen. The EMBO Journal, 2001; 20:2120-2130) and therefore the adhesion assays were performed in the presence or absence of these divalent cations. Ninety-six well micro titer plates were coated with insoluble equine tendon fibrillar type I collagen or soluble rat tail type I (non-fibrillar) collagen, maintained in acetate buffer (pH 4.5), (Nakamura T., Jamieson G. A., Okuma M., Kambayashi J., and Tendon N. N. Platelet Adhesion to Native Type I Collagen Fibrils: role of gpVI in divalent cation-dependent and -independent adhesion and thromboxane A2 generation. J. Biol. Chem 1998; 273: 4338-[…], Tendon N N, Ockenhouse C F, Greco N J, Jamieson G A. Adhesive functions of platelet lacking GPIV (CD36). Blood 1991: 78: 2809-13). The unoccupied protein binding sites on the wells were blocked with 5 mg/ml BSA at room temperature for 1 hour, and then rinsed once in PBS. Washed platelets, suspended in the Tyrode's-HEPES buffer (136.7 mM NaCl, 13.8 mM NaHCO3, 0.36 mM NaH2PO4.H2O, 2.6 mM KCl, 1.0 mM MgCl2.6H2O, 5.5 mM glucose, 0.5% BSA, pH 7.4) at 1×10^8 cells/mL were pre-incubated with compounds for 30 min at 37° C. and added to the wells (10^7/well) for 1 h at room temperature. Divalent cation-free adhesion buffer was made by replacing Mg^2+ (1 mM) in the Tyrode-HEPES buffer with 50 μM EDTA (Yoshida S., Sudo T., Niimi M., Tao L., Sun B., Kambayashi J., Watanabe H., Luo E., and Matsuoka H. Inhibition of collagen-induced platelet aggregation by anopheline antiplatelet protein, a saliva protein from a malaria vector mosquito. Blood 2007; 111: 2007-201). After three washes in Tyrode's buffer, the number of adherent platelets was evaluated colorimetrically (as described by Bellavite P., Andrioli G., Gizzo P., Arigliano P., Chirumbolo S., Manzato F, Santonastaso C. A colorimetric method for the measurement of platelet adhesion in microtifer plates. Anal. Biochem. 1994; 216:444-450. Briefly, 150 μl of a 0.1 M citrate buffer (pH 5.4), containing 5 mM p-nitrophenyl phosphate and 0.1% TritonX-100 was added to the wells after washing. After incubation for 60 min at 25° C. in the absence of ambient light, colour was developed by the addition of 100 μl of 2N NaOH and the absorbance at 405 nm was read using a microplate reader (Powerware XS, Biotek, USA).

[2] = system: human platelet rich plasma (collagen induced aggregation); test: Collagen induced platelet aggregation, human platelet rich plasma (in vitro); details: for IC50: human PRP, collagen 2 μg/ml, read-out: Collagen induced platelet aggregation studies (Human) IC50; for activity against collagen induced aggregation: in vitro, human platelet rich plasma
Protocol: as §1, §2

1-(4-methylphenylmethyl)-5-oxo-{N-[(3-t-butoxycarbonyl-aminomethyl)]-piperidin-1-yl}-pyrrolidine-2-carboxamides [Compound 1]
IC50 [1]: > 100 µM
Platelet adhesion (GPVI): Effective
IC50 [2]: ~10 µM

Cc1ccc(CN2C(=O)CC[C@H]2C(=O)N2CCCC(CNC(=O)OC(C)(C)C)C2)cc1 (stereo partly drawn) [Compound 1, 1-(4-methylphenylmethyl)-5-oxo-{N-[(3-t-butoxycarbonyl-aminomethyl)]-piperidin-1-yl}-pyrrolidine-2-carboxamides]
inhibition of TRAP induced platelet aggregation ([1]; at 100 μM): significant inhibition
human platelet adhesion on fibrillar collagen (GP VI mediated) (GPVI): partially inhibited
activity against collagen induced aggregation [2]: active

Cc1ccc(CN2C(=O)CC[C@H]2C(=O)N2CCC[C@@H](CNC(=O)OC(C)(C)C)C2)cc1 [Compound 6]
IC50 ([1]; Platelet): > 500 µM
effect on TRAP induced platelet aggregation [1]: did not exhibit any effect
Platelet adhesion (GPVI): Effective (30
human platelet adhesion on fibrillar collagen (GP VI mediated) (GPVI): partially inhibited
IC50 ([2]; Platelet): ~10 µM
activity against collagen induced aggregation [2]: active

Cc1ccc(CN2C(=O)CC[C@H]2C(=O)N2CCC[C@H](CNC(=O)OC(C)(C)C)C2)cc1 [Compound 7, (2S)-1-(4-methylphenylmethyl)-5-oxo-(3R)-{N-[(3-t-butoxycarbonyl-aminomethyl)]-piperidin-1-yl}-pyrrolidine-2-carboxamide]
IC50 ([1]; Platelet): > 500 µM
effect on TRAP induced platelet aggregation [1]: did not exhibit any effect
Platelet adhesion (GPVI): Effective
human platelet adhesion on fibrillar collagen (GP VI mediated) (GPVI): partially inhibited
IC50 ([2]; Platelet): > 10 µM
activity against collagen induced aggregation [2]: active

Source: US9687480B2, “Chiral 1-(4-methylphenylmethyl)-5-oxo-{N-[(3-t-butoxycarbonyl-aminomethyl)]-piperidin-1-yl)-pyrrolidine as inhibitors of collagen induced platelet activation and adhesion” (Council of Scientific & Industrial Research, priority 2011, dated 2017)
